“Also recorded” adds a separate entry of the source.
Experiment: Rheological characterization of hydrogel compositions (shear and extensional rheology)
Type: physicochemical
Details: for change of crossover frequency compared to the Sangelose only hydrogel: 3 wt % Sangelose with 0.75 wt % second agent (αCD 0.05 wt %), 25° C.; for storage modulus (G′) compared to Sangelose only hydrogels / tan (delta) compared to Sangelose only hydrogels: measured at 0.1 rad·s^−1, 3 wt % Sangelose with second agent; for G′ values compared to hydrogels comprising only Sangelose (Tween comparison): at a frequency of 10 rad·s^−1, 3 wt % Sangelose, 0.75 wt % Tween
Protocol: Rheological characterization was performed using a 20-mm diameter serrated parallel plate at a 500-μm gap on a TA Instruments DHR-2 stress-controlled rheometer. All measurements were performed at 25° C. Frequency sweep measurements were performed at a constant 1% strain. Steady shear flow sweeps were performed from high to low shear rates. Stress sweeps were performed from low to high with steady-state sensing and yield stress values defined as the stress at which the viscosity decreases 10% from the maximum. Amplitude sweep measurements were performed at a frequency of 0.1 rad·s^-1. P values are calculated with a one-way ANOVA followed by post hoc Tukey multiple comparison test unless otherwise noted. Extensional rheology was performed on a TA Instruments ARES-G2 rheometer in axial mode using an 8-mm parallel plate geometry (R=4 mm) at a H=4 mm gap, resulting in an aspect ratio of H/R=1. A sample volume of 400 μl was loaded for each of the three replicated measurements. All experiments were performed at 25° C. Samples of the hydrogel compositions were loaded and tested immediately within seconds to minimize dehydration. […] (exponential) strain rates were applied at three different strain rates.

| Molecule | change of crossover frequency compared to the Sangelose only hydrogel | storage modulus (G′) compared to Sangelose only hydrogels | tan (delta) compared to Sangelose only hydrogels | G′ values compared to hydrogels comprising only Sangelose (Tween comparison) |
| --- | --- | --- | --- | --- |
| OCC1O[C@@H]2O[C@@H]3C(CO)O[C@H](O[C@@H]4C(CO)O[C@H](O[C@@H]5C(CO)O[C@H](O[C@@H]6C(CO)O[C@H](O[C@@H]7C(CO)O[C@H](O[C@H]1[C@H](O)[C@H]2O)[C@H](O)[C@H]7O)[C@H](O)[C@H]6O)[C@H](O)[C@H]5O)[C@H](O)[C@H]4O)[C@H](O)[C@H]3O (stereo partly drawn) [αCD, α-cyclodextrin] | shift rightward | lower than the storage modulus of the Sangelose only hydrogels | higher than the tan (delta) values of the Sangelose only hydrogels |  |
| Span 20 | did not change the crossover frequency |  |  |  |
| polyoxyethylene (20) sorbitan monolaurate [Tween 20] | shift rightward | lower than the storage modulus of the Sangelose only hydrogels | higher than the tan (delta) values of the Sangelose only hydrogels; also recorded: significantly higher tan (delta) values | lower G′ values |
| polyoxyethylene (20) sorbitan monooleate [Tween 80] | shift rightward | lower than the storage modulus of the Sangelose only hydrogels | higher than the tan (delta) values of the Sangelose only hydrogels; also recorded: significantly higher tan (delta) values | lower G′ values |
| polyoxyethylene (20) sorbitan monopalmitate [Tween 40] |  |  | significantly higher tan (delta) values | lower G′ values |

Source: patent publication US20260166114A1, “DYNAMIC HYDROGEL COMPOSITIONS” (The Board of Trustees of the Leland Stanford Junior …, priority 2022, published 2026)
